Laboratory results as given in patent US12527774B2, “Estrogen-related receptor alpha modulators” (LEAD PHARMA HOLDING B.V., priority 2019, dated 2026).

Experiments:
[1] = biological target: ERRα ligand binding domain (ERRα-LBD) (Homo sapiens (Human), UniProt P11474); experiment: ERRα AlphaScreen Assay; assay type: biochemical; conditions: disruption of binding of ERRα-LBD protein to biotin-PGC1α-3 co-activator peptide; for IC50: read-out: mean pIC50 (converted)
Method in brief: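 Disruption of co-activator binding read by AlphaScreen: compounds in triplicate, 1% DMSO, Tris pH 7.5 buffer, room temperature. Bacterially expressed 6His-SUMO-ERRα-LBD at 0.81 nM with beads for 1 h, then 15 nM biotinylated PGC1α peptide for 2 h. IC50 from four-parameter fits, averaged as pIC50.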

full length ERRα = full length ERRα (Homo sapiens (Human), UniProt P11474); experiment: Full Length ERRα Reporter Gene Assay; assay type: cell-based; conditions: SK-BR-3 cells, ERRα-RE luciferase reporter, overnight incubation; for IC50: read-out: mean pIC50 (converted)
Text: Full Length ERRα Reporter Gene Assay
A method was established to quantitatively screen the potency of compounds with inverse agonistic activity on the nuclear receptor ERRα of the human species. The assay allows intra-cellular screening of ERRα inverse agonists in SK-BR-3 cells using an over-expression construct coding full length ERRα and a reporter construct containing an ERRα Response Element (RE) and a luciferase gene for read out. The activity is expressed in log IC50 values and can be used to determine SAR of compound families or to de-select compounds.
In this assay, reporter cells are obtained by transient co-transfection of two constructs in SK-BR-3 cells using standard transfection techniques. The first construct contains a response element of the nuclear receptor ERRα (Plasmid pLP2175, Reporter construct ERRα-RE/luc2P, cloned variant of ERRα_v2_synthRE, Switchgear Genomics, Catalog Number S900089). This sequence drives the transcription of the luciferase reporter gene in response to binding of an ERRα protein encoded by the second construct (Plasmid pLP2124: full length ERRα expression construct using pcDNA3.1/Hygro(+) as background, Invitrogen Catalog Number V87020).
The day after transfection, cells were plated into 96 well plates, test compound was added and the plates were incubated overnight. Subsequently, the firefly luciferase activity was quantified using luciferase detection reagent and luminescence readout.
Detailed Assay Description
Transfection is performed on pre-seeded SK-BR-3 cells in a T175 flask. One transfected T175 flask is sufficient for seeding 3 to 4 MW96 plates the next day, depending on the confluency of the transfected cells.
Two different media are used in this protocol for cell treatment: 1) Culture medium, i.e. McCoy's 5a with phenol red (BioWhittaker Supplier Number 12-688F), 10% FBS and 1× Penstrep.; and, 2) Assay medium, i.e. McCoy's 5a Medium phenol red free (HyClone Product Code SH30270.01) with 2% Charcoal Stripped FBS and 1× Penstrep. Compound dilutions are prepared in assay medium.
Cells are seeded at least 2 days in advance to allow the cells to adhere well to flask before transfection. Cells should be 50-80% confluent at the day of transfection.
SKBR3 cells were transfected with the transcriptional reporter construct pLP2175 and the ERRα expression construct pLP2124 (as described above).
68 μL of Lipofectamine LTX transfection reagent (Invitrogen Catalog Number 15338-100) was added dropwise to 8.9 ml Opti-MEM I Reduced Serum Medium (Gibco Catalog Number 51985-026) and incubated at room temperature for 5 to 20 minutes. 8.9 ml of this reagent mixture was added to 22 μg pLP2175+22 μg pLP2124 (ratio 1:1 and total volume 10 ml), and incubated at room temperature for 25 minutes.
10 minutes before adding the transfection mix to SKBR3 cells in a T175 flask, the culture medium was refreshed with 20 mL culture medium. Subsequently, the 10 mL DNA-Opti-MEM-Lipofectamine mixture was gently added to the cells, followed by overnight (16-24 hours) incubation at 37° C. and 5% CO2.
To harvest SKBR3 cells from a T175 flask, first the medium was removed. Subsequently, cells were washed with Phosphate Buffered Saline (PBS) (Lonza), after which the PBS was removed. To dissociate the cells, 2 ml of TrypLE Express (Invitrogen) was added to the flask, followed by incubation at 37° C. for 5 minutes. The flask was tapped until cells were detached from the bottom. Cells were collected in 8 mL of culture medium (McCoy's 5α, 10% FBS, penstrep), to achieve a single cell suspension. After cell count, cells were spun down for 5 minutes at 300 g. Next cell pellets were re-suspended to 25000 cells/80 μl assay medium (McCoy's 5a phenol red free, 2% charcoal stripped FBS, penstrep).
For compound screening, the cells were harvested (as described above). 80 μL of cell suspension (25,000 cells) was plated per well into a white, flat bottom, tissue culture treated, 96 well screening plates (Greiner). […]

full length ERRα, sequence (P11474 whole entry): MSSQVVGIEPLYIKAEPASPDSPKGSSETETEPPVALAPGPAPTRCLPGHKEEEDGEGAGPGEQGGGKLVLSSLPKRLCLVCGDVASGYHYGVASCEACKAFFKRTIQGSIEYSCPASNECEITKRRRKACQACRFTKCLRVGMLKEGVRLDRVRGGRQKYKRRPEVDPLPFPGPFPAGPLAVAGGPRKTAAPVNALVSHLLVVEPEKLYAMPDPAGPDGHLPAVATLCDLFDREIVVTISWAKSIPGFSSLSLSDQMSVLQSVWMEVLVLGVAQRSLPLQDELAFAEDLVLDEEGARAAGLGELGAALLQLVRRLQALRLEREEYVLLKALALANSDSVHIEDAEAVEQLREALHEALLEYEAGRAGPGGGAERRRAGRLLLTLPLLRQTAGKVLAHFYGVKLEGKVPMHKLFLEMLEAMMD
ERRα ligand binding domain (ERRα-LBD), sequence (P11474 193-421): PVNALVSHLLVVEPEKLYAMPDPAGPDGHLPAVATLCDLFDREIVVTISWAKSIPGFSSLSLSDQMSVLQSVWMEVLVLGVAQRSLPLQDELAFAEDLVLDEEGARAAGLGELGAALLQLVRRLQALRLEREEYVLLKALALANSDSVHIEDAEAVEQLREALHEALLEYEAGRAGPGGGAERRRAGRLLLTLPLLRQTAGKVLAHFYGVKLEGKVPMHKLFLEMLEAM

SMILES: CCc1ccc(COc2ccc(-c3cc(=O)[nH]c4n[nH]cc34)cc2OC)c(C(F)(F)F)c1 [Example 175, 4-(4-{[4-ethyl-2-(trifluoromethyl)phenyl]methoxy}-3-methoxyphenyl)-2H,6H, 7H-pyrazolo[3,4-b]pyridin-6-one]
- mean pIC50 [1]: ≥ 8
- IC50 (full length ERRα): ≤ 316 nM

SMILES: COc1ccc(C(F)(F)F)c(COc2ccc(-c3cc(=O)[nH]c4n[nH]cc34)cc2OC)c1 [Example 178, 4-(3-methoxy-4-{[5-methoxy-2-(trifluoromethyl)phenyl]methoxy}phenyl)-2H,6H,7H-pyrazolo[3,4-b]pyridin-6-one]
- mean pIC50 [1]: ≥ 8
- IC50 (full length ERRα): ≤ 316 nM

SMILES: COc1cc(C2CC(=O)Nc3n[nH]cc32)ccc1OCc1cc(C)ccc1C(F)(F)F (stereo not shown) [Example 32, 4-(3-methoxy-4-{[5-methyl-2-(trifluoromethyl)phenyl]methoxy}phenyl)-2H,4H,5H,6H,7H-pyrazolo[3,4-b]pyridin-6-one]
- mean pIC50 [1]: ≥ 8
- IC50 (full length ERRα): ≤ 316 nM

SMILES: COc1cc(C2CC(=O)Nc3[nH]cnc32)ccc1OCc1ccccc1C(F)(F)F (stereo not shown) [Example 89, 7-(3-methoxy-4-{[2-(trifluoromethyl)phenyl]methoxy}phenyl)-3H,4H,5H,6H, 7H-imidazo[4,5-b]pyridin-5-one]
- mean pIC50 [1]: ≥ 8
- IC50 (full length ERRα): ≤ 316 nM

SMILES: COc1cc(C2CC(=O)Nc3n[nH]cc32)ccc1OCc1ccccc1OC(F)(F)F (stereo not shown) [Example 24, 4-(3-methoxy-4-{[2-(trifluoromethoxy)phenyl]methoxy}phenyl)-2H,4H,5H,6H,7H-pyrazolo[3,4-b]pyridin-6-one]
- mean pIC50 [1]: ≥ 8
- IC50 (full length ERRα): ≤ 316 nM

SMILES: O=C1CC(c2ccc(COc3ccccc3S(F)(F)(F)(F)F)c(OC(F)(F)F)c2)c2c[nH]nc2N1 (stereo not shown) [Example 107, 4-(4-{[2-(pentafluoro-λ^6-sulfanyl)phenoxy]methyl}-3-(trifluoromethoxy)phenyl)-2H,4H,5H,6H, 7H-pyrazolo[3,4-b]pyridin-6-one]
- IC50 [1]: 10 to 100 nM
- IC50 (full length ERRα): ≤ 316 nM

SMILES: COc1cc(C2CC(=O)Nc3n[nH]nc32)ccc1OCc1ccc(C(C)=O)cc1C(F)(F)F (stereo not shown) [Example 93, 7-(4-{[4-acetyl-2-(trifluoromethyl)phenyl]methoxy}-3-methoxyphenyl)-2H,4H,5H,6H,7H-[1,2,3]triazolo[4,5-b]pyridin-5-one]
- IC50 [1]: 10 to 100 nM
- IC50 (full length ERRα): ≤ 316 nM

SMILES: CCc1ccc(COc2ccc(C3CC(=O)Nc4n[nH]cc43)cc2OC)c(C(F)(F)F)c1 (single isomer, unassigned; (+)) [Example 207, (+)-4-(4-{[4-ethyl-2-(trifluoromethyl)phenyl]methoxy}-3-methoxyphenyl)-2H,4H,5H,6H,7H-pyrazolo[3,4-b]pyridin-6-one]
- IC50 (full length ERRα): ≤ 316 nM

SMILES: COc1cc(C2CC(=O)Nc3n[nH]cc32)ccc1OCc1ccc(CCO)cc1C(F)(F)F (single isomer, unassigned; (-)) [Example 212, (−)-4-(4-{[4-(2-hydroxyethyl)-2-(trifluoromethyl)phenyl]methoxy}-3-methoxyphenyl)-2H,4H,5H,6H,7H-pyrazolo[3,4-b]pyridin-6-one]
- mean pIC50 (full length ERRα): ≥ 6.5

SMILES: COc1cc(C2CC(=O)Nc3n[nH]cc32)ccc1OCc1ccccc1C(F)(F)F (stereo not shown) [Example 1, 4-(3-methoxy-4-{[2-(trifluoromethyl)phenyl]methoxy}phenyl)-2H,4H,5H,6H, 7H-pyrazolo[3,4-b]pyridin-6-one]
- mean pIC50 [1]: ≥ 8
- IC50 (full length ERRα): ≤ 316 nM

SMILES: COc1cc(C2CC(=O)Nc3n[nH]cc32)ccc1OCc1ccc(CCCO)cc1C(F)(F)F (stereo not shown) [Example 149, 4-(4-{[4-(3-hydroxypropyl)-2-(trifluoromethyl)phenyl]methoxy}-3-methoxyphenyl)-2H,4H,5H,6H, 7H-pyrazolo[3,4-b]pyridin-6-one]
- mean pIC50 [1]: ≥ 8
- IC50 (full length ERRα): ≤ 316 nM

SMILES: O=C1CC(c2ccc(COc3ccc(Br)cc3C(F)(F)F)c(OC(F)(F)F)c2)c2c[nH]nc2N1 (stereo not shown) [Example 106, 4-(4-{[4-bromo-2-(trifluoromethyl)phenoxy]methyl}-3-(trifluoromethoxy)phenyl)-2H,4H,5H,6H,7H-pyrazolo[3,4-b]pyridin-6-one]
- IC50 [1]: 10 to 100 nM
- IC50 (full length ERRα): ≤ 316 nM

SMILES: COc1cc(C2CC(=O)Nc3n[nH]cc32)ccc1OCc1ccccc1C(C)(C)C (stereo not shown) [Example 40, 4-{4-[(2-tert-butylphenyl)methoxy]-3-methoxyphenyl}-2H,4H,5H,6H,7H-pyrazolo[3,4-b]pyridin-6-one]
- mean pIC50 [1]: ≥ 8
- IC50 (full length ERRα): ≤ 316 nM

SMILES: COc1cc(C2CC(=O)Nc3n[nH]cc32)ccc1OCc1ccc(CCO)cc1C(F)(F)F (stereo not shown) [Example 155, 4-(4-{[4-(2-hydroxyethyl)-2-(trifluoromethyl)phenyl]methoxy}-3-methoxyphenyl)-2H,4H,5H,6H, 7H-pyrazolo[3,4-b]pyridin-6-one]
- mean pIC50 [1]: ≥ 8
- IC50 (full length ERRα): ≤ 316 nM

SMILES: COc1cc(C2CC(=O)Nc3n[nH]cc32)ccc1OCc1ccc(C2CC2)cc1C(F)(F)F (stereo not shown) [Example 145, 4-(4-{[4-cyclopropyl-2-(trifluoromethyl)phenyl]methoxy}-3-methoxyphenyl)-2H,4H,5H,6H, 7H-pyrazolo[3,4-b]pyridin-6-one]
- mean pIC50 [1]: ≥ 8
- IC50 (full length ERRα): ≤ 316 nM

SMILES: COc1cc(-c2cc(=O)[nH]c3n[nH]cc23)ccc1OCc1ccc(C(C)=O)cc1C(F)(F)F [Example 174, 4-(4-{[4-acetyl-2-(trifluoromethyl)phenyl]methoxy}-3-methoxyphenyl)-2H,6H, 7H-pyrazolo[3,4-b]pyridin-6-one]
- mean pIC50 [1]: ≥ 8
- IC50 (full length ERRα): ≤ 316 nM

SMILES: COc1cc(C2CC(=O)Nc3n[nH]cc32)ccc1OCc1ccc(C(C)=O)cc1C(F)(F)F (single isomer, unassigned; (-)) [Example 200, (−)-4-(4-{[4-acetyl-2-(trifluoromethyl)phenyl]methoxy}-3-methoxyphenyl)-2H,4H,5H,6H,7H-pyrazolo[3,4-b]pyridin-6-one]
- IC50 (full length ERRα): ≤ 316 nM

SMILES: COc1ccc(COc2ccc(C3CC(=O)Nc4[nH]nnc43)cc2OC)c(C(F)(F)F)c1 (single isomer, unassigned; (-)) [Example 202, (−)-7-(3-methoxy-4-{[4-methoxy-2-(trifluoromethyl)phenyl]methoxy}phenyl)-3H,4H,5H,6H,7H-[1,2,3]triazolo[4,5-b]pyridin-5-one]
- IC50 (full length ERRα): ≤ 316 nM

SMILES: COc1ccc(COc2ccc(C3CC(=O)Nc4n[nH]cc43)cc2OC)c(C(F)(F)F)c1 (single isomer, unassigned; (-)) [Example 198, (−)-4-(3-methoxy-4-{[4-methoxy-2-(trifluoromethyl)phenyl]methoxy}phenyl)-2H,4H,5H,6H,7H-pyrazolo[3,4-b]pyridin-6-one]
- IC50 (full length ERRα): ≤ 316 nM

SMILES: COc1cc(C2CC(=O)Nc3n[nH]cc32)ccc1OCc1ccc(N)cc1C(F)(F)F (single isomer, unassigned; (+)) [Example 203, (+)-4-(4-{[4-amino-2-(trifluoromethyl)phenyl]methoxy}-3-methoxyphenyl)-2H,4H,5H,6H,7H-pyrazolo[3,4-b]pyridin-6-one]
- IC50 [1]: 10 to 100 nM
